In experiment [1] the target is T1, glutathione-S-transferase (GST) tagged LXRalpha LBD (ligand binding domain) (Homo sapiens, UniProt Q13133).
T1 construct: purchased Invitrogen pv4655
T1 sequence (Q13133 209-447 limits assumed): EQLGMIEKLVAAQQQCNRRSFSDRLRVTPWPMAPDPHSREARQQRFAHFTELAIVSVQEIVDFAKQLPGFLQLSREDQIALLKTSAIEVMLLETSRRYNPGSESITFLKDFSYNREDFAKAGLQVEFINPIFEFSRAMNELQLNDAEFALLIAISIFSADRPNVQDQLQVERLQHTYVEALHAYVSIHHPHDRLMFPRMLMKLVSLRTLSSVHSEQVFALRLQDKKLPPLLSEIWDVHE
The experiment is described as follows: LanthaScreen TR-FRET Liver X Receptor Coactivator Assay, LXR alpha. It is filed as biochemical. As to conditions: for Emax: read-out: LXR alpha actiivty at max dose (%); for EC50 / LXR alpha IP (nM): potency (Inflection Point) of compound-induced co-activator recruitment, TR-FRET. On the procedure: (§1) While running the LanthaScreen™ TR-FRET Liver X Receptor Coactivator Assay, LXR alpha-LBD or LXR beta-LBD was added to ligand test compounds followed by addition of a mixture of a fluorescein-labelled coactivator peptide and terbium-conjugated anti-GST antibody. After an incubation period at room temperature, TR-FRET (time-resolved fluorescence resonance energy transfer) was measured using a filter-based instrument capable of TR-FRET, e.g. PerkinElmer Envision.
A general note: TR-FRET usually uses a lanthanide donor and a delayed reading to cut background.

For experiment [2], the target named is T2, glutathione-S-transferase (GST) tagged LXRbeta LBD (ligand binding domain) (Homo sapiens, UniProt P55055).
T2 construct: purchased Invitrogen pv4658.pps
T2 sequence (P55055 222-460 limits assumed): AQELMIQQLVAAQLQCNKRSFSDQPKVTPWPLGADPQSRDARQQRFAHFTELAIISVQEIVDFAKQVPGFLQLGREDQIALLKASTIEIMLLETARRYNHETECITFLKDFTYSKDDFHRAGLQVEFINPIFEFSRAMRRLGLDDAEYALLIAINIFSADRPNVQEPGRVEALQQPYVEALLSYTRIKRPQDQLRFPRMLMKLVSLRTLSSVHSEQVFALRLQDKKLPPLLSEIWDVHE
Put plainly: LanthaScreen TR-FRET Liver X Receptor Coactivator Assay, LXR beta. It is filed as biochemical. As to conditions: for Emax: read-out: LXR beta actiivty at max dose (%); for EC50: potency (Inflection Point) of compound-induced co-activator recruitment, TR-FRET. On the procedure:
as §1

[3] abbreviates: efficacy (Emax) in relation to reference dual agonist T0901317.

The source of these data is patent US10894775B2, “Piperidine derivatives as liver X receptor beta agonists, compositions, and their use” (Merck Sharp & Dohme Corp., priority 2016, dated 2021).

Where two headings read alike, the source gives them in different places.

In the case of `CN(C)C(=O)c1ccc(N(C)CCC[C@@H]2CC23CCN(C(=O)[C@](O)(c2ccccc2)C(F)(F)F)CC3)cc1Cl` (single isomer, unassigned) [Example 7-1, 2-chloro-N,N-dimethyl-4-(methyl(3-((R or S)-6-((R or S)-3,3,3-trifluoro-2-hydroxy-2-phenylpropanoyl)-6-azaspiro[2.5]octan-1-yl)propyl)amino)benzamide], the figures for the Emax in experiment [1] (setting [3]) and in experiment [2] (setting [3]) were 28% and 103%, respectively. Also, the figures for the EC50 in experiment [1] (read-out: LXR alpha IP) and in experiment [2] (read-out: LXR beta IP) were 683 nM and 59 nM, respectively.

For the molecule `COc1cccc([C@@](O)(C(=O)N2CCC3(CC2)C[C@H]3CCCc2ccc(C(=O)N(C)C)c(Cl)c2)C(F)(F)F)c1` (single isomer, unassigned) [Example 17-1, 2-chloro-N,N-dimethyl-4-(3-((R or S)-6-((R or S)-3,3,3-trifluoro-2-hydroxy-2-(3-methoxyphenyl)propanoyl)-6-azaspiro[2.5]octan-1-yl)propyl)benzamide], the figures for the Emax in experiment [1] (setting [3]) and in experiment [2] (setting [3]) were 0% and 51%, respectively. Further, the “LXR alpha IP (nM)” value in experiment [1] is listed as “No IP”. For the same molecule, the EC50 in experiment [2] (read-out: LXR beta IP) was 12 nM.

As for `CN(C)C(=O)c1ccc(NCCC2CC3(CCN(C(=O)C(O)(c4ccccc4)C(F)(F)F)CC3)C2)cc1Cl` (single isomer, unassigned) [Example 13-1, 2-chloro-N,N-dimethyl-4-(2-(7-((R or S)-3,3,3-trifluoro-2-hydroxy-2-phenylpropanoyl)-7-azaspiro[3.5]nonan-2-yl)ethylamino)benzamide], the Emax in experiment [1] (setting [3]) amounted to 39%; in experiment [2] (setting [3]) it was 57%. Also, the EC50 in experiment [1] (read-out: LXR alpha IP) amounted to 321 nM; in experiment [2] (read-out: LXR beta IP), 6 nM.

Turning to `COc1cccc(C(O)(C(=O)N2CCC3(CCC(Cc4ccc(C(=O)N(C)C)c(Cl)c4)CC3)CC2)C(F)(F)F)c1` (single isomer, unassigned) [Example 18-1, 2-chloro-N,N-dimethyl-4-((3-((R or S)-3,3,3-trifluoro-2-hydroxy-2-(3-methoxyphenyl)propanoyl)-3-azaspiro[5.5]undecan-9-yl)methyl)benzamide], the figures for the Emax in experiment [1] (setting [3]) and in experiment [2] were 21% and 65%, respectively. Further, the EC50 in experiment [1] (read-out: LXR alpha IP) turned out to be 739 nM; in experiment [2] (LXR beta IP (nM)), 72 nM.

For `CNC(=O)c1ccc(NCCCCC2CCN(C(=O)C(O)(c3cccc(OC4CC4)c3)C(F)(F)F)CC2)cc1Cl` (single isomer, unassigned) [Example 1-7, (S or R)-2-chloro-4-(4-(1-(2-(3-cyclopropoxyphenyl)-3,3,3-trifluoro-2-hydroxypropanoyl)piperidin-4-yl)butylamino)-N-methylbenzamide], the Emax was 19% in experiment [1] (setting [3]) and 56% in experiment [2] (setting [3]). Further, the EC50 amounted to 3160 nM in experiment [1] (read-out: LXR alpha IP) and 14 nM in experiment [2] (read-out: LXR beta IP).

As for `COc1cccc([C@@](O)(C(=O)N2CCC(CCCC(C)Nc3ccc(C(=O)N(C)C)c(Cl)c3)CC2)C(F)(F)F)c1` (single isomer, unassigned) [Example 4-5, 2-chloro-N,N-dimethyl-4-((R or S)-5-(1-((R or S)-3,3,3-trifluoro-2-hydroxy-2-(3-methoxyphenyl)propanoyl)piperidin-4-yl)pentan-2-ylamino)benzamide], the results for the Emax in experiment [1] (setting [3]) and in experiment [2] (setting [3]) were 0% and 17%, respectively. For the same molecule, in experiment [1], the “LXR alpha IP (nM)” value is reported as “No IP”. Moreover, in experiment [2] (read-out: LXR beta IP), the EC50 came to 3770 nM.

As for `CN(C)C(=O)c1ccc(NCCC[C@@H]2CC23CCN(C(=O)[C@](O)(c2ccccc2)C(F)(F)F)CC3)cc1Cl` (single isomer, unassigned) [Example 6-1, 2-chloro-N,N-dimethyl-4-(3-((R or S)-6-((R or S)-3,3,3-trifluoro-2-hydroxy-2-phenylpropanoyl)-6-azaspiro[2.5]octan-1-yl)propylamino)benzamide], the values for the Emax in experiment [1] (setting [3]) and in experiment [2] (setting [3]) were 21% and 30%, respectively. Also, the EC50 in experiment [1] (read-out: LXR alpha IP) worked out at 828 nM; in experiment [2] (read-out: LXR beta IP) it was 15 nM.

Consider `CNC(=O)c1ccc(NCCCCC2CCN(C(=O)C(O)(c3ccccc3)C(F)(F)F)CC2)cc1Cl` (single isomer, unassigned) [Example 1-3, (R or S)-2-chloro-N-methyl-4-(4-(1-(3,3,3-trifluoro-2-hydroxy-2-phenylpropanoyl)piperidin-4-yl)butylamino)benzamide], for which the figures for the Emax in experiment [1] (setting [3]) and in experiment [2] (setting [3]) were 38% and 75%, respectively. Moreover, the EC50 in experiment [1] (read-out: LXR alpha IP) was determined as 481 nM; in experiment [2] (read-out: LXR beta IP), 9 nM.

Regarding `COc1cccc(C(O)(C(=O)N2CCC(CCCCCc3ccc(C(=O)N(C)C)c(Cl)c3)CC2)C(F)(F)F)c1` (single isomer, unassigned) [Example 15-5, (R or S)-2-chloro-N,N-dimethyl-4-(5-(1-(3,3,3-trifluoro-2-hydroxy-2-(3-methoxyphenyl)propanoyl)piperidin-4-yl)pentyl)benzamide], the Emax stood at 22% in experiment [1] (setting [3]) and 75% in experiment [2] (setting [3]). The EC50 in experiment [1] (read-out: LXR alpha IP) stood at 516 nM; in experiment [2] (read-out: LXR beta IP), 16 nM.

Take `CN(C)C(=O)c1ccc(NCCCCC2CCN(C(=O)C(O)(c3ccccc3)C(F)(F)F)CC2)nc1Cl` (stereo not drawn) [Example 2-1, 2-chloro-N,N-dimethyl-6-(4-(1-(3,3,3-trifluoro-2-hydroxy-2-phenylpropanoyl)piperidin-4-yl)butylamino)nicotinamide]: the EC50 in experiment [1] (LXR alpha IP (nM)) was determined as 1250 nM; in experiment [2] (read-out: LXR beta IP), 29 nM. Moreover, the Emax stood at 25% in experiment [1] and 52% in experiment [2].

On to `CN(C)C(=O)c1ccc(NCCC[C@H]2CC23CCN(C(=O)[C@](O)(c2ccccc2)C(F)(F)F)CC3)cc1Cl` (single isomer, unassigned) [Example 6-2, 2-chloro-N,N-dimethyl-4-(3-((S or R)-6-((R or S)-3,3,3-trifluoro-2-hydroxy-2-phenylpropanoyl)-6-azaspiro[2.5]octan-1-yl)propylamino)benzamide], for which the figures for the Emax in experiment [1] (setting [3]) and in experiment [2] (setting [3]) were 11% and 56%, respectively. Also, the results for the EC50 in experiment [1] (read-out: LXR alpha IP) and in experiment [2] (read-out: LXR beta IP) were 472 nM and 8 nM, respectively.

Take `CNC(=O)c1ccc(NCCCCC2CCN(C(=O)C(O)(c3cccc(OC(F)(F)F)c3)C(F)(F)F)CC2)cc1Cl` (single isomer, unassigned) [Example 1-9, (S or R)-2-chloro-N-methyl-4-(4-(1-(3,3,3-trifluoro-2-hydroxy-2-(3-(trifluoromethoxy)phenyl)propanoyl)piperidin-4-yl)butylamino)benzamide]: the figures for the Emax in experiment [1] (setting [3]) and in experiment [2] (setting [3]) were 13% and 62%, respectively. The “LXR alpha IP (nM)” value in experiment [1] is “No IP”. The EC50 in experiment [2] (read-out: LXR beta IP) turned out to be 17 nM.

`CN(C)C(=O)c1ccc(SC2CCC3(CC2)CCN(C(=O)C(O)(c2cc(Cl)cc(Cl)c2)C(F)(F)F)CC3)cc1Cl` (single isomer, unassigned) [Example 19-2, 2-chloro-4-(3-((R or S)-2-(3,5-dichlorophenyl)-3,3,3-trifluoro-2-hydroxypropanoyl)-3-azaspiro[5.5]undecan-9-ylthio)-N,N-dimethylbenzamide]: the Emax in experiment [1] (setting [3]) is 8%; in experiment [2] (setting [3]) it was 74%. In experiment [1], the “LXR alpha IP (nM)” value is reported as “No IP”. The EC50 in experiment [2] (read-out: LXR beta IP) is 38 nM.

As for `CC(CCCC1CCN(C(=O)[C@](O)(c2cccc(Cl)c2)C(F)(F)F)CC1)Nc1ccc(C(=O)N(C)C)c(Cl)c1` (single isomer, unassigned) [Example 4-2, 2-chloro-4-((S or R)-5-(1-((R or S)-2-(3-chlorophenyl)-3,3,3-trifluoro-2-hydroxypropanoyl)piperidin-4-yl)pentan-2-ylamino)-N,N-dimethylbenzamide], the Emax in experiment [1] (setting [3]) was determined as 37%; in experiment [2] (setting [3]), 84%. Besides, the EC50 in experiment [1] (read-out: LXR alpha IP) turned out to be 382 nM; in experiment [2] (read-out: LXR beta IP), 7 nM.

Take `CN(C)C(=O)c1ccc([S+]([O-])C2CCC3(CC2)CCN(C(=O)C(O)(c2cc(Cl)cc(Cl)c2)C(F)(F)F)CC3)cc1Cl` (single isomer, unassigned) [Example 20-1, 2-chloro-4-(3-((R or S)-2-(3,5-dichlorophenyl)-3,3,3-trifluoro-2-hydroxypropanoyl)-3-azaspiro[5.5]undecan-9-ylsulfinyl)-N,N-dimethylbenzamide]: in experiment [1], the “LXR alpha IP (nM)” value is “No IP” and the Emax was 0%. In addition, the EC50 in experiment [2] (LXR beta IP (nM)) was 938 nM. Besides, the Emax in experiment [2] is 50%.
